Experimental data as given in patent US9650339B2, “Inhibitors of histone demethylases” (Gilead Sciences, Inc., priority 2013, dated 2017).

Tests used:
[1] = biological target: T1, KDM3B (JMJD1B) (Homo sapiens, UniProt Q7LBC6); assay: Histone lysine demethylase AlphaLISA assay, KDM3B; type: biochemical; details: read-out: KDM3B HDME Inhibition IC50
T1 construct: 842-1761; host or cells: Bac (baculovirus system)
T1 sequence (Q7LBC6 842-1761): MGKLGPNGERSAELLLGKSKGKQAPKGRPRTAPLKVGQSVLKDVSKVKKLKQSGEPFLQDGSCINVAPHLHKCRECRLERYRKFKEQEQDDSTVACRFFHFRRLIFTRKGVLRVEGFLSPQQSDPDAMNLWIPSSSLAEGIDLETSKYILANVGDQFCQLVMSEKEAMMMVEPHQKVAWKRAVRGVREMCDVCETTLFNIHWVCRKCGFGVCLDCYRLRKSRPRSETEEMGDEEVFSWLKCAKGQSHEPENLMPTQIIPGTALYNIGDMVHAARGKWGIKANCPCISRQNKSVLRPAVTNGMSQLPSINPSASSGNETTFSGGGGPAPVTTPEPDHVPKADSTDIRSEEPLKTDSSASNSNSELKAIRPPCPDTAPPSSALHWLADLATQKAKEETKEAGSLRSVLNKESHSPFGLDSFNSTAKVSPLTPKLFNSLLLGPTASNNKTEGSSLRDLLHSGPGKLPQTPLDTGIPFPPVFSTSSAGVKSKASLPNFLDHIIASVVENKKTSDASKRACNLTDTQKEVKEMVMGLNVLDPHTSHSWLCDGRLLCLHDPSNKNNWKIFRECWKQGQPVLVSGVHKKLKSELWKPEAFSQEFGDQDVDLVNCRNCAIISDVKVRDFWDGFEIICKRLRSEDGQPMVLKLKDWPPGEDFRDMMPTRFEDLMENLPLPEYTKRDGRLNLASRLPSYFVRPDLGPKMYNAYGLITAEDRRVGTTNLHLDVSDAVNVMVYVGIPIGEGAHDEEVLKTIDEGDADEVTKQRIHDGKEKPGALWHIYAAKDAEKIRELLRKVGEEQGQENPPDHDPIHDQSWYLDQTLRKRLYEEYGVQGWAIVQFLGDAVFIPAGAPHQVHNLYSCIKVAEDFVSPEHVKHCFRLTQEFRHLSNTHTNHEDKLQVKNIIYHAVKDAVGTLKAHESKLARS
Procedure: (§1) Assays are performed analogously to the protocol described by PerkinElmer (Roy et al. PerkinElmer Technical Note: AlphaLISA #12, April 2011)
(§2) Enzymes are dissolved in enzyme buffer and incubated for 10 min before being added to 3% DMSO solutions of compounds in enzyme buffer. Incubated for another 10 minutes, before substrate solution is added and the reaction mixture is incubated at room temperature. 10 μL acceptor beads, suspended in Epigenetic Buffer (Perkin Elmer AL008) from stock, are added and the suspension is incubated in the dark at room temperature, before a suspension of streptavidin donor beads (Perkin Elmer 6760002) in Epigenetic Buffer is added. After incubation at room temperature in the dark the plates are read. […]
(§3) BK9M2: Biotin-ARTKQTAR(KMe2)STGGKAPRKQ-NH2 (AnaSpec 64359) […]
(§4) Substrate Solution: Substrate, 25 μM L-Asc, and 10 μM α-KG in Buffer A.

[2] = biological target: T2, KDM3A (JMJD1A) (Homo sapiens, UniProt Q9Y4C1); assay: Histone lysine demethylase AlphaLISA assay, KDM3A; type: biochemical; details: read-out: KDM3 A HDME Inhibition IC50
T2 construct: 2-end; purchased BPS Bioscience, US; host or cells: Bac (baculovirus system)
T2 sequence (Q9Y4C1 2-1321 limits assumed): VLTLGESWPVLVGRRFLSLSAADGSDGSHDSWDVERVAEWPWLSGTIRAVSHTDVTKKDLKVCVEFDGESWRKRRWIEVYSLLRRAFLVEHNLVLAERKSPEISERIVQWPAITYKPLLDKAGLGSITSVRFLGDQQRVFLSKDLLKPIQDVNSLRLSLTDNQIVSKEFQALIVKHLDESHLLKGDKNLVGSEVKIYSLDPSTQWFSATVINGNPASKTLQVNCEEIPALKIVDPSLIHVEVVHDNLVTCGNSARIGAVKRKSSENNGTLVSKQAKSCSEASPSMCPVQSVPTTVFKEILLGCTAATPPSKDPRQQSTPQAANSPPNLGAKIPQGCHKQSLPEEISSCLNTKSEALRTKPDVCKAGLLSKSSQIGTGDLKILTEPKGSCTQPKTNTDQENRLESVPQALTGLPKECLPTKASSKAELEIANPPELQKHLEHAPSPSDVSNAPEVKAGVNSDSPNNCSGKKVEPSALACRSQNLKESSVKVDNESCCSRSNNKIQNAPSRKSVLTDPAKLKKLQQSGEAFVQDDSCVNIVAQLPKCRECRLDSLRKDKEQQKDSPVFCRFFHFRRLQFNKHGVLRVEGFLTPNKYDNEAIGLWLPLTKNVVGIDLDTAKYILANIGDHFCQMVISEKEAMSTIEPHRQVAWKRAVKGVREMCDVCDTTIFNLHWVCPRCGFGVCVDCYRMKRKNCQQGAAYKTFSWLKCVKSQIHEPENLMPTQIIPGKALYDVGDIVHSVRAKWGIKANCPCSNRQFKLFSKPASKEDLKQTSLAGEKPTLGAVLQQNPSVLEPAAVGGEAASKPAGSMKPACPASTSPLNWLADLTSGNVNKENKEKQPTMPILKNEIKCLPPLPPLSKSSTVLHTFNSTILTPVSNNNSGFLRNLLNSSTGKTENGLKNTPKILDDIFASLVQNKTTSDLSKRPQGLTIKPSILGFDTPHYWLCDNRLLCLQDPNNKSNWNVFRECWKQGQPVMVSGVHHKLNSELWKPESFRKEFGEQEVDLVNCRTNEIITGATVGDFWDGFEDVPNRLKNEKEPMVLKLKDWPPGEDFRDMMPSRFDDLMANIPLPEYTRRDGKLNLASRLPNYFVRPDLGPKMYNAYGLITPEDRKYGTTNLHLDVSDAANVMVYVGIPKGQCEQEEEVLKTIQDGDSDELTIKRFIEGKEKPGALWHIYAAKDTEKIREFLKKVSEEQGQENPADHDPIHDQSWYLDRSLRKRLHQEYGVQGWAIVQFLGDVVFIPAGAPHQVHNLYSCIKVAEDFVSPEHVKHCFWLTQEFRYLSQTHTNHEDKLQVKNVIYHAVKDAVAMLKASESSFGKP
Procedure: as §1, §2, §3, §4

| Structure (SMILES) | IC50 [1] | IC50 [2] |
| --- | --- | --- |
| CN(C)C(=O)CNCc1cc(/C=N/CCCc2ccccc2)ccn1 [Compound 34, N,N-dimethyl-2-[({4-[[(3-phenylpropyl)imino]-methyl]pyridin-2-yl}methyl)amino]-acetamide] | > 2.5 µM | > 2.5 µM |
| CC1CC1/N=C/c1ccnc(CNCC(=O)N(C)C)c1 (stereo not drawn) [Compound 35, N,N-dimethyl-2-[({4-[N-(2-methylcyclopropyl)-carboximidoyl]pyridin-2-yl}methyl)amino]-acetamide] | > 2.5 µM | > 2.5 µM |
| CN(C)C(=O)CNCc1cc(/C=N/CCC2CCCCC2)ccn1 [Compound 36, 2-[({4-[[(2-cyclohexylethyl)imino]-methyl]pyridin-2-yl}methyl)amino]-N,N-dimethylacetamide] | > 2.5 µM | > 2.5 µM |
| CN(C)CCC/N=C/c1ccnc(CNCCCN(C)C)c1 [Compound 37, [3-(dimethylamino)propyl]-({4-[{[3-(dimethylamino)propyl]-imino}methyl]pyridin-2-yl}methyl)amine] | > 2.5 µM | > 2.5 µM |
| CN(C)CCCNCc1cc(/C=N/CCN(C)C)ccn1 [Compound 38, ({4-[{[2-(dimethylamino)ethyl]-imino}methyl]pyridin-2-yl}methyl)[3-(dimethylamino)-propyl]amine] | > 2.5 µM | > 2.5 µM |
| CCSCCNCc1cc(/C=N/C2CC2)ccn1 [Compound 39, N-{[2-({[2-(ethylsulfanyl)-ethyl]amino}methyl)pyridin-4-yl]methylidene}-cyclopropanamine] | > 2.5 µM | > 2.5 µM |
| CN1CCCC1CCNCc1cc(/C=N/C2CC2)ccn1 (stereo not drawn) [Compound 40, N-{[2-({[2-(l-methylpyrrolidin-2-yl)ethyl]amino}methyl)-pyridin-4-yl]methylidene}-cyclopropanamine] | > 2.5 µM | > 2.5 µM |
| C(=N/C1CC1)/c1ccnc(CNCCCN2CCCC2)c1 [Compound 42, N-{[2-({[3-(pyrrolidin-1-yl)propyl]amino}-methyl)pyridin-4-yl]methylidene}-cyclopropanamine] | > 2.5 µM | > 2.5 µM |
| CN(C)C/C=C/CNCc1cc(/C=N/C2CC2)ccn1 [Compound 43, N-{[2-({[(2E)-4-(dimethylamino)but-2-en-1-yl]amino}-methyl)pyridin-4-yl]methylidene}-cyclopropanamine] | > 2.5 µM | > 2.5 µM |
| C(=N\C1CC1)/c1ccnc(CNCCCCN2CCC2)c1 [Compound 44, N-{[2-({[4-(azetidin-1-yl)butyl]amino}methyl)-pyridin-4-yl]methylidene}-cyclopropanamine] | > 2.5 µM | > 2.5 µM |
| CN(C)CCCCNCc1cc(/C=N\C2CC2)ccn1 [Compound 45, N-{[2-({[4-(dimethylamino)butyl]-amino}methyl)-pyridin-4-yl]methylidene}-cyclopropanamine] | > 2.5 µM | > 2.5 µM |
| CN(C)CC1CCC(CNCc2cc(/C=N/C3CC3)ccn2)CC1 (stereo not drawn) [Compound 46, N-[(2-{[({4-[(dimethylamino)-methyl]cyclohexyl}-methyl)amino]-methyl}pyridin-4-yl)methylidene]-cyclopropanamine] | > 2.5 µM | > 2.5 µM |
| CN(C)CCCCCNCc1cc(/C=N/C2CC2)ccn1 [Compound 47, N-{[2-({[5-(dimethylamino)-pentyl]amino}-methyl)pyridin-4-yl]methylidene}-cyclopropanamine] | > 2.5 µM | > 2.5 µM |
| CCN(CC)CCCCNC(=O)CNCc1cc(/C=N/C2CC2)ccn1 [Compound 48, 2-[({4-[N-cyclopropyl-carboximidoyl]pyridin-2-yl}methyl)amino]-N-[4-(diethylamino)-butyl]acetamide] | > 2.5 µM | > 2.5 µM |
| O=C(CNCc1cc(/C=N/C2CC2)ccn1)N1CCC[C@@H]1CN1CCCC1 [Compound 49, 2-[({4-[N-cyclopropyl-carboximidoyl]pyridin-2-yl}methyl)amino]-1-[(2R)-2-(pyrrolidin-1-ylmethyl)pyrrolidin-1-yl]ethan-1-one] | > 2.5 µM | > 2.5 µM |
| CCN(CCC#N)C(=O)CNCc1cc(/C=N/C2CC2)ccn1 [Compound 50, N-(2-cyanoethyl)-2-[({4-[N-cyclopropyl-carboximidoyl]-pyridin-2-yl}methyl)amino]-N-ethylacetamide] | > 2.5 µM | > 2.5 µM |
| CCN1CCCC1CNC(=O)CNCc1cc(/C=N/C2CC2)ccn1 (stereo not drawn) [Compound 51, 2-[({4-[N-cyclopropyl-carboximidoyl]-pyridin-2-yl}methyl)-amino]-N-[(1-ethylpyrrolidin-2-yl)methyl]acetamide] | > 2.5 µM | > 2.5 µM |
| CN(CCCn1cccn1)C(=O)CNCc1cc(/C=N/C2CC2)ccn1 [Compound 52, 2-[({4-[N-cyclopropyl-carboximidoyl]-pyridin-2-yl}methyl)amino]-N-methyl-N-[3-(1H-pyrazol-1-yl)propyl]acetamide] | > 2.5 µM | > 2.5 µM |
| O=C(CNCc1cc(/C=N/C2CC2)ccn1)NC1CCN(Cc2ccccc2)C1 (stereo not drawn) [Compound 53, N-(1-benzylpyrrolidin-3-yl)-2-[({4-[N-cyclopropyl-carboximidoyl]pyridin-2-yl}methyl)amino]-acetamide] | > 2.5 µM | 0.25 to 2.5 µM |
| CN1CCN(C(=O)CNCc2cc(/C=N/C3CC3)ccn2)CC1 [Compound 54, 2-[({4-[N-cyclopropyl-carboximidoyl]-pyridin-2-yl}methyl)amino]-1-(4-methylpiperazin-1-yl)ethan-1-one] | 0.25 to 2.5 µM | > 2.5 µM |
| O=C(CNCc1cc(/C=N/C2CC2)ccn1)N1CCC(Cc2ccccc2)CC1 [Compound 55, 1-(4-benzylpiperidin-1-yl)-2-[({4-[N-cyclopropyl-carboximidoyl]-pyridin-2-yl}methyl)amino]-ethan-1-one] | > 2.5 µM | > 2.5 µM |
